Assay results reported in patent publication US11332438B2, “Creatine prodrugs, compositions and methods of use thereof” (Ultragenyx Pharmaceutical Inc., priority 2017, dated 2022).
Entries after “also recorded” stand apart in the source; their conditions may differ. Like-named read-outs stand apart in the source and are kept apart here.

Tests used:
[1] = rcm bond, Grubbs II (10 mol%), DCM, 50.0 °C, 2.0 h
[2] = test system: ARPE-19 cells; experiment: Creatine prodrug uptake and d3-creatine release in ARPE-19 cells (Table 4A); assay type: cell-based, human; conditions: 50 μM, 6 h, cytosol fraction, corrected for total protein
Method: At the end of the incubation, supernatant will be collected from each well to assess prodrug recovery. Cells are then washed 3× with PBS. Plates, prodrugs in supernatant, prodrugs in serum-free medium are stored at −80° C. until harvest (within 5 days). On the day of extraction, 130 uL of lysis buffer (10 mM Tris pH 7.4) with EDTA-free protease inhibitors is added to each well and cells are removed using a cell scraper. Lysates are further homogenized using a handheld pestle and then centrifuged at 16,000 g, […], for 10 minutes to collect cytosol fraction. Pellets will be stored at −80° C. until further analysis. A 4× volume of stop solution (80% ACN/20% water) will be added to the cytosol fraction, supernatant and medium. Samples will be centrifuged at 15,890 g (13,000 rpm) at 4° C. for 10 mins. Supernatant will be collected and stored at −80° C. within 5 days prior to LC-MS/MS analysis. Dosing solutions for each prodrug (10 μM) will be assayed to verify concentration. Cells alone with vehicle will serve as controls to assess background signal for LC-MS/MS. Two independent runs of experiment will be conducted.
Nine fatty acid amide creatine prodrugs were tested in human ARPE-19 cells to assess prodrug uptake and d3-Cr release inside the cells. 50 μM of prodrug was incubated in culture medium with the cells and the cells were harvested at 6 h. Quantitation of prodrugs, d3-Cr (d3-creatine) and d3-Cm (d3-creatinine) in the cytosol fraction was corrected for total protein concentration.

[3] = Liver microsome stability, mouse; assay type: in vitro ADME; conditions: liver microsomes, pH 7.4, Table 2A, read-out: Microsome Stability Mouse t1/2
Summary of the method: (§1)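 Test compound incubated with mouse or human liver microsomes and NADPH in 0.1 M potassium phosphate, 1.0 mM EDTA, pH 7.4, with a 60-min no-NADPH control. Samples quenched with ACN containing internal standard at 0, 5, 10, 20, 30 and 60 min, then analysed by LC/MS.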

[4] = Plasma stability, human plasma; assay type: in vitro ADME; conditions: Table 2A, 37 °C, read-out: Plasma Stability Human t1/2
Summary of the method: (§2)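 Test article, 1 µM final (from 10% DMSO/water), incubated at 37 °C in plasma adjusted to pH 7.4 if needed; samples at 0, 2, 5, 15 and 30 min quenched with ice-cold 80% acetonitrile. Remaining compound by LC-MS/MS; half-life in minutes calculated.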

[5] = Plasma stability, mouse plasma; assay type: in vitro ADME; conditions: Table 2A, 37 °C, read-out: Plasma Stability Mouse t1/2
Summary of the method: as §2

[6] = Chemical stability in phosphate buffered saline (PBS); assay type: physicochemical; conditions: Table 2A, 50 μM prodrug
Summary of the method: (§3)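 Incubations used 50 μM compound at 37 °C in phosphate buffered saline, fasted simulated intestinal fluid without pancreatin, or fasted simulated gastric fluid without pepsin.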

[7] = Chemical stability in simulated gastric fluid (SGF) without pepsin; assay type: physicochemical; conditions: Table 2A, 50 μM prodrug
Summary of the method: as §3

[8] = Liver microsome stability, human; assay type: in vitro ADME; conditions: liver microsomes, pH 7.4, Table 2A, read-out: Microsome Stability Human t1/2
Summary of the method: as §1

[9] = In vivo IV dosing in CrT KO mice: prodrug, d3-Cr and d3-Crn in brain (Table 5); conditions: for AUClast prodrug in the brain: BQL prodrug = 41.2 ng/mL
Method: A creatine prodrug is administered as an intravenous bolus injection to groups of three to six adult male CD1 mice at an appropriate creatine prodrug dose equivalent per kg body weight. Animals are conscious at the time of the experiment. Blood samples (0.3 mL) are obtained via a jugular vein cannula at intervals over 8 hours following IV dosing. Blood is processed into plasma, then the plasmais immediately frozen at −80° C. until analyzed by LC-MS/MS. Samples may also be taken form the CSF or other appropriate biological fluid. Brains were collected and flash frozen immediately in liquid nitrogen. Brains were homogenized in 100 mM KPI buffer with a cocktail of anti-proteases on the same day as the sample preparation required for LC-MS/MS analysis.
Several prodrugs with either free COOH group and ester linkage and macrocycles were selected for IV dosing in animal study to assess PK and d3-Cr release in brain in vivo. Prodrugs were IV dosed in CrT KO mice at 10, 15, or 25 mg/kg in animal studies. Mouse brain homogenates (MBH) were prepared from brains collected from mice after dosing. Levels of prodrug, d3-Cr and d3-Crn were quantified in brain and expressed in brain concentration (for macrocycle prodrugs) or AUC (for linear prodrugs) over time. Very few prodrugs were detected in MBH.

[10] = Prodrug cleavage in human brain homogenates (HBH): d3-Cr release and d3-Crn cyclization; assay type: in vitro ADME; conditions: for Prodrug Cleavage Human BH d3-Crn release / Prodrug Cleavage Human BH net d3-Cr release: 200 μM prodrug, 3 h, % of nominal input; for Prodrug Cleavage Human BH net d3-Cr release: negative control subtracted
Method: (§4) For assessment of the ability of prodrugs to release creatine, and to release creatine preferentially to unwanted cyclization to creatinine, d3-labeled (deuterium labeled methyl group) prodrugs are incubated with brain homogenates (e.g., mouse, human) specially prepared to preserve FAAH activity or with rFAAH for direct cleavage study. The use of d3-labelled prodrugs is essential in order to distinguish prodrug-derived creatine (d3-creatine) from high concentrations of endogenous (non-labeled) creatine. […] Prodrugs are tested at final concentrations of 20 μM and 200 μM. Approximately 3-4 mg of homogenate is used for each reaction. Co-factor (NADPH) is included at a final concentration of 1 mM. FAAH activity is confirmed by conversion of 7-amino-4-methyl Coumarin-Arachidonamide to 7-amino-4-methyl Coumarin by fluorescent assay. Negative controls include incubations without brain homogenate/rFAAH (but with NADPH) or 65° C. heat inactivated brain homogenate/rFAAH to assess non-enzymatic prodrug cleavage under the conditions of the assay and FAAH inhibitor […] at the concentration of 1 μM. Prodrug incubations are prepared by addition of 8 μL of prodrug stock solution (500 or 5000 μM in DMSO or DMSO/methanol) to assay buffered, followed by addition of brain homogenate/rFAAH. […] The samples are centrifuged at 15890×g for 10 minutes at 4° C., followed by transfer of the supernatants for storage at −20° C. pending LC-MS/MS analysis. Sample supernatants are analyzed by LC-MS/MS for determination of d3-prodrug, d3-creatine and d3-creatinine levels.
(§5) Deuterated creatine prodrugs were tested in 3 different in vitro assays to assess d3-creatine (d3-Cr) release and cyclization to form d3-creatinine (d3-Crn). These assays were 1) direct cleavage with recombinant human FAAH enzyme (rFAAH), 2) cleavage in mouse brain homogenates (MBH), and 3) human brain homogenates (HBH).
(§6) Creatine prodrug cleavage efficiency was determined by percentage of net d3-Cr release in μM (positive reaction subtracted from negative control of no brain homogenate/rFAAH or inactivated brain homogenate/rFAAH) over nominal input concentration of 200 μM prodrug at 3 h. Propensity for creatinine cyclization was determined by percentage of d3-Crn generated in μM in positive reaction over nominal input concentration of 200 μM prodrug at 3 h.

[11] = target: T1, recombinant human FAAH enzyme (rFAAH) (Homo sapiens, UniProt O00519); experiment: Direct prodrug cleavage with recombinant human FAAH enzyme (rFAAH): d3-Cr release and d3-Crn cyclization; assay type: biochemical; conditions: 200 μM prodrug, 3 h; result in words
T1 sequence (O00519 1-579): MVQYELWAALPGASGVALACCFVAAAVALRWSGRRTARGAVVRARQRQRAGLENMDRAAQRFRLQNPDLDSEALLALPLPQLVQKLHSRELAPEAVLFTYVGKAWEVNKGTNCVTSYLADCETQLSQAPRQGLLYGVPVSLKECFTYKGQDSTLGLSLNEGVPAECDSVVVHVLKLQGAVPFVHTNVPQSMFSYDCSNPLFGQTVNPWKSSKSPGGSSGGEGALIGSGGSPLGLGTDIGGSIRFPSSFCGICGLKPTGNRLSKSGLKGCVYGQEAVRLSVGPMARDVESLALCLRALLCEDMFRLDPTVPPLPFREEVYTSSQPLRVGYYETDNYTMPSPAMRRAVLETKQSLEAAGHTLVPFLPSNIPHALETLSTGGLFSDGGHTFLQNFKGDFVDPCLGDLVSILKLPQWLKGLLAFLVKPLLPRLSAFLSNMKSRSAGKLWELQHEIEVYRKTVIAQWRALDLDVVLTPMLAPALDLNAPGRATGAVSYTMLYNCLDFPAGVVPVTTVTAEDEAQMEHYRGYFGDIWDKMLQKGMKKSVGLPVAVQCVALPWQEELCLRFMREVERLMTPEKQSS
Method: as §4, §5, §6

[12] = IV 10 mg/kg, CrT KO mouse brain
[13] = in vitro cleavage assays (Table 3A)

Structure (SMILES) | prodrug, Cellular Uptake [2] | half-life at 10 μM [3] [h] | half-life [4] [h] | half-life [5] [h] | Chemical Stability PBS % T0 at 2 hours at 37 °C. [6] [%] | Chemical Stability SGF, no enzyme % T0 at 2 hours at 37 °C. [7] [%] | half-life at 10 μM [8] [h] | AUClast prodrug in the brain [9, 12] | further results
CN1CC(=O)OC(C)(C)CC=CCCCCCCCC(=O)NC1=NC(=O)OCc1ccccc1 |  |  |  |  |  |  |  |  | ring closure, isolated yield ([1]; from [2H]C([2H])([2H])N(CC(=O)OC(C)(C)CC=C)/C(=N\C(=O)OCc1ccccc1)NC(=O)CCCCCCCC=C, 18-membered ring, 2.0 mM): 79%
[2H]C([2H])([2H])N1CC(=O)OC2(CC/C=C/CCCCCC(=O)N/C1=N/C(=O)OCc1ccccc1)CCOC2 (stereo not shown) |  |  |  |  |  |  |  |  | ring closure, isolated yield ([1]; from [2H]C([2H])([2H])N(CC(=O)OC1(CCC=C)CCOC1)/C(=N\C(=O)OCc1ccccc1)NC(=O)CCCCCC=C, 17-membered ring, 1.95 mM): 78%
[2H]C([2H])([2H])N(CC(=O)[O-])C(=N)NC(=O)CCCCCCC/C=C\CCCCCCCC.[Na+] [Compound 1, Sodium N-(methyl-d3)-N—(N-oleoylcarbamimidoyl)glycinate] | 24.8 nmol/mg protien | 1.38 | > 3 | > 3 | 76 | 74 | 2.22 |  | 
Cl.[2H]C([2H])([2H])N(CC(=O)OCCCCCCC)C(=N)NC(=O)CCCCCCCCCC [Compound 5, Heptyl N-(methyl-d3)-N—(N-undecanoylcarbamimidoyl)glycinate Hydrochloride] | BQL | < 0.0833 | 0.0833 | < 0.0833 | 23 | 73 | < 0.0833 | BQL | 
[2H]C([2H])([2H])N(CC(=O)OC(C)C)C(=N)NC(=O)CCCCCCCCCCCC [Compound 10] |  |  |  |  |  |  |  | BQL | 
Cl.[2H]C([2H])([2H])N(CC(=O)OC(C)C)C(=N)NC(=O)CCCCCCCCCC [Compound 12-HCl] |  |  |  |  | 99 | 117 |  |  | Prodrug Cleavage Human BH d3-Crn release [10]: 265.7%; Prodrug Cleavage Human BH net d3-Cr release [10]: 2.9%; d3-Cr release in vitro (in words) [10, 13]: small amount of d3-Cr; d3-Crn (creatinine) cyclization in vitro (in words) [10, 13]: predominantly cyclized into creatinine; also recorded: predominantly creatinine cyclization; d3-Cr/d3-Crn release ratio in vivo (in words) ([9]; brain, CrT KO mice): favorable d3-Cr/d3-Crn ratio
[2H]C([2H])([2H])N(CC(=O)OC(C)C)C(=N)NC(=O)CCCCCCCCCC [Compound 12] |  |  |  |  |  |  |  | BQL | 
[2H]C([2H])([2H])N(CC(=O)[O-])C(=N)NC(=O)CCCCCC.[Na+] [Compound 13] |  | 15.2 | > 3 | > 3 | 97 | 94 | 10.8 | BQL | crossing of BBB (in words) ([9]; CrT KO mice, IV dosing): did not seem to cross BBB; AUClast d3-Cr in the brain ([9]; IV 10 mg/kg, CrT KO mouse brain, BQL d3-Cr = 13.7 ng/mL): BQL; AUClast d3-Crn in the brain ([9]; IV 10 mg/kg, CrT KO mouse brain, BQL d3-Crn = 1.5 ng/mL): BQL
[2H]C([2H])([2H])N(CC(=O)[O-])C(=N)NC(=O)c1cccnc1.[Na+] [Compound 20] | BQL | > 2.42 | > 3 | > 3 | 101 | 78 | > 2.42 |  | d3-Cr, Cellular Uptake [2]: BQL; d3-Crn, Cellular Uptake [2]: BQL
[2H]C([2H])([2H])N(CC(=O)O)C(=N)NC(=O)CCCCCCCCCCC [Compound 30] | 29.2 nmol/mg protien | > 2.42 | > 3 | 2.7 | 145 | 62 | 1.57 |  | 
Cl.[2H]C([2H])([2H])N(CC(=O)OC(C)C)C(=N)NC(=O)CCCCCCC/C=C\CCCCCCCC [Compound 45] | BQL |  |  |  | 54 | 102 |  |  | d3-Cr, Cellular Uptake [2]: 0.74 nmol/mg protien; d3-Crn, Cellular Uptake [2]: 1.03 nmol/mg protien; Prodrug Cleavage Human BH d3-Crn release [10]: 22.0%; Prodrug Cleavage Human BH net d3-Cr release [10]: 0.4%; Prodrug Cleavage rFAAH d3-Crn release (yes/no) [11]: yes; Prodrug Cleavage rFAAH net d3-Cr release (yes/no) [11]: no
